The values below come from paper PMC2914800 (Biochemistry, 2010).

For experiment [1], the target named is HasAp (Pseudomonas aeruginosa, UniProt G3XD33). Briefly: stopped-flow UV-vis kinetics at […] °C. It is filed as binding.
Experiment [2] addresses T1, HasAp (Pseudomonas aeruginosa, UniProt G3XD33, H32A).
T1 sequence (G3XD33 1-184 H32A): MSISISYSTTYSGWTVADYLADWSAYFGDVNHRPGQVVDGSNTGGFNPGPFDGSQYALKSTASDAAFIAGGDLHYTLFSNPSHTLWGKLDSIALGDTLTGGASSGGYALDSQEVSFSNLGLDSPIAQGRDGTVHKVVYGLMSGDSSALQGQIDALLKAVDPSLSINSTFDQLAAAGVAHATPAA
In words: stopped-flow UV-vis kinetics at […] °C. It is filed as binding.

In the case of `C=CC1=C(C)C2=Cc3c(C=C)c(C)c4[n]3[Fe]([Cl])[n]3c(c(C)c(CCC(=O)O)c3=CC3=NC(=C4)C(C)=C3CCC(=O)O)=CC1=N2` [hemin], the Kd (usually the concentration at which binding is half-saturated) on HasAp [1] amounted to 35 µM; at HasAp [2] it was 61 µM.
